Structures can show the parent of a compound that is named as a salt. Where two headings read alike, the source gives them in different places.
Assays:
[1] = target: T1, α-1A adrenoreceptor (rat submaxillary gland) (Rattus norvegicus, UniProt P43140); experiment: In vitro [3H]-prazosin radioligand binding, pharmacologically defined α-1A adrenoreceptor (rat submaxillary gland)
T1 construct: Rat submaxillary glands were used for α-1A adrenoreceptors; from tissue; host or cells: rat submaxillary gland membranes
T1 sequence (P43140 1-466): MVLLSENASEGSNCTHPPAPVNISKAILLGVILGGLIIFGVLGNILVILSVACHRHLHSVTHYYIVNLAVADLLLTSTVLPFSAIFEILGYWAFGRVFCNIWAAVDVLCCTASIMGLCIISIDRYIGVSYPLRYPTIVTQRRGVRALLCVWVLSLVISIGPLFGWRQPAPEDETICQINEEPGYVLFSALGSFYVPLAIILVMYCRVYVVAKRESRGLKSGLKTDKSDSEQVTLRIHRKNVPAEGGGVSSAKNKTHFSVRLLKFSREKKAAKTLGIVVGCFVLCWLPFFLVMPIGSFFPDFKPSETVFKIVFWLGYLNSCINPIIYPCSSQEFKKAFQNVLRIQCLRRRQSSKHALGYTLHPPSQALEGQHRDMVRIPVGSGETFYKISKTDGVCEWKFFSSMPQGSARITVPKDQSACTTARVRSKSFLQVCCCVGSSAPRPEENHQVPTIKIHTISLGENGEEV
Experimental: Additionally, binding affinity against the pharmacologically defined α-1A adrenoreceptor (rat submaxillary gland) was measured.
(§1) On the fifth day of culture, growth medium was removed from cells grown in roller bottles, and the cells were washed twice with PBS (Sigma, 120 mM NaCl, 2.7 mM KCl, 10 mM Na2 HPO4 --NaH2 PO4, pH=7.4). Cells were detached from the roller bottles by incubating for 15 minutes at 37° C. in a Tris-EDTA solution (10 mM Tris, 100 mM NaCl, 1 mM EDTA, pH=7.4). The cell suspension from each roller bottle was decanted into tared centrifuge tubes and kept on ice. An aliquot of each cell suspension was generally taken for cell counting. Cells were centrifuged at 3000×G for 5 min at 2°-4° C., washed with PBS and recentrifuged. The supernatant was decanted and the pellet weighed to determine the wet weight of cells. Cells were washed a final time in 40 vol 5 mM Tris-HCl, 5 mM EDTA, pH=7.7, and centrifuged at 40,000×G for 10 minutes. Cells were homogenized in 10 mL of 50 mM Tris-HCl, 5 mM EDTA (pH=7.4) and diluted to 40 mL/tube. Homogenates were centrifuged at 40,000×G for 10 minutes. The supernatant was decanted and the pellets rehomogenized in 50 mM Tris-HCl (pH=7.4) and centrifuged as before. The supernatant was decanted and the homogenate resuspended in 6.25 volumes (per gram wet weight) of 50 mM Tris-HCl and aliquots of the pooled homogenates frozen in liquid N2 and stored at -70° C. until the time of assay. Rat submaxillary glands were used for α-1A adrenoreceptors and were prepared essentially as described (Michel, A. D., Loury, D. N. and Whiting, R. L., Brit. J. Pharmacol. 98: 83-889 (1989)).
(§2) Receptor binding assays for α-1 adrenoreceptors were performed essentially as described by Greengrass and Bremner (Eur. J. Pharmacol. 55: 323-326 (1979)). […] Radioactivity was determined by standard liquid scintillation techniques. Data were analyzed as previously described (Hancock, A. A., Kyncl, J. J., Martin, Y. C. and DeBernardis, J. F., J Receptor Res. 8: 23-46 (1988)).

[2] = target: T2, α-1a adrenoreceptor (bovine) (Bos taurus, UniProt P18130); experiment: In vitro [3H]-prazosin radioligand binding, cloned α-1a adrenoreceptor expressed in LTK cells
T2 construct: expressed in transfected cells; cDNA from TULCO; membranes
T2 sequence (P18130 1-466): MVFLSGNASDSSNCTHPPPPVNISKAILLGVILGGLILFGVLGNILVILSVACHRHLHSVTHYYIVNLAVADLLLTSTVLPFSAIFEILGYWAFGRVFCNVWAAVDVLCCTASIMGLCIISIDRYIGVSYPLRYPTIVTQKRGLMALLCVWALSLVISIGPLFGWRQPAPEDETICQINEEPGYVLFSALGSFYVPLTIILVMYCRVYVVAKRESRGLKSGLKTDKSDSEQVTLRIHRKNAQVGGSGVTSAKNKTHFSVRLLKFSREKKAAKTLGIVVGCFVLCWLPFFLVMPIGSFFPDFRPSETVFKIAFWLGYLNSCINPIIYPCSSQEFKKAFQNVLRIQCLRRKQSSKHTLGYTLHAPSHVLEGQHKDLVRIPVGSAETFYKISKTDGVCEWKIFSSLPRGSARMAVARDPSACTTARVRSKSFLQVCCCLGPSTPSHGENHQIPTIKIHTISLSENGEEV
Text: The cDNA clones encoding the α-1 adrenoreceptors (α-1a, α-1b, and α-1d) were obtained from TULCO (Triangle Universities Licensing Consortium, Research Triangle Park, N.C.) and inserted into the eukaryotic expression vector SnaB30. In this vector, expression of the adrenoreceptor gene is under the transcriptional control of an SV40 early promoter. Positive drug selection is provided by a neomycin-resistance gene. Mouse fibroblast cells (LTK) were transfected with the α1 expression plasmids and grown in Dulbecco's modified Eagle's medium (DMEM) containing 10% fetal calf serum and […]. Stable G418-resistant parental lines were generated, with successful expression of adrenoreceptor protein monitored using radioligand binding techniques. Stable single cell clones derived from the parental lines were screened in adrenoreceptor binding assays to identify clones having high adrenoreceptor density. Roller bottle cultures of the cloned lines were used to provide cell membranes for subsequent adrenoreceptor binding characterization studies. A cell line containing the SnaB30 vector expressing the human erythropoietin gene served as a negative control.
For adrenoreceptor binding assays, large scale membrane preparations were utilized in which 6 million cells were seeded into small (450 cm^2) Corning tissue culture roller bottles. 200 mL of DMEM containing 10% fetal calf serum and 300 μM G418 were added to each roller bottle. A 95% air/5% CO2 gas mixture (sterile) was injected into each roller bottle prior to sealing. The bottles were then incubated at 37° C. on a roller rack for 5 days. Cells were re-fed with fresh medium after 3 days in culture.
as §1, §2

[3] = target: T3, α-1A adrenoreceptor (rat vas deferens) (Rattus norvegicus, UniProt P43140); experiment: Functional antagonism: inhibition of phenylephrine-induced contraction of rat vas deferens; type: cell-based
T3 construct: from tissue; host or cells: rat vas deferens
T3 sequence (P43140 1-466): T1 sequence (P43140 1-466)
Text: Functional assays indicative of pharmacologically defined α-1 adrenoreceptors were used to further characterize compounds. Inhibition of phenylephrine (PE)-induced contraction of canine prostate smooth muscle can be correlated with α-1A adrenoreceptor activation. […] For each of these models, agonist dose response curves were repeated against increasing concentrations of test agent to derive a Schild plot [log ([…]) against log (molarity of test agent)] to determine the pA2.

[4] = rat submaxillary gland, [3H]prazosin 0.2 nM, read-out: Radioligand Binding (Ki; nM) 1A (Rat)
[5] = cloned bovine α-1a in LTK cells, [3H]prazosin 0.2 nM, read-out: Radioligand Binding (Ki; nM) 1a (Bovine)

Structure (SMILES): COc1cccc2c1[C@@H]1CCN(CCCCn3c(=O)[nH]c4c(sc5ccccc54)c3=O)C[C@H]1CO2 (relative stereo) [Example 87, 3-[4-((±)-trans-10-Methoxy-1,3,4,4a,5,10b-hexahydro-2H-[1]-benzopyrano[3,4-c]pyrido-3-yl)butyl]-[1]-benzthieno[3,2-d]pyrimidine-2,4(1H,3H)-dione hydrochloride]
- Ki [1]: 0.371 nM
- Ki [2]: 0.227 nM
- Kb [3]: 2.14 nM

Structure (SMILES): COc1cccc2c1[C@@H]1CCN(CCCCn3c(=O)[nH]c4c(sc5cccnc54)c3=O)C[C@H]1CO2 (relative stereo) [Example 88, 3-[4-((±)-trans-10-Methoxy-1,3,4,4a,5,10b-hexahydro-2H-[1]-benzopyrano[3,4-c]pyrido-3-yl)butyl]-pyrido[2',3':4,5]thieno[3,2-d]pyrimidine-2,4(1H,3H)-dione hydrochloride]
- Ki [1]: 0.188 nM
- Ki [2]: 0.11 nM
- Kb [3]: 1.82 nM

Structure (SMILES): COc1cc2[nH]c(=O)n(CCN3CC[C@H]4c5c(OC)cccc5OC[C@@H]4C3)c(=O)c2cc1OC (relative stereo) [Example 91, 3-[2-((±)-trans-10-Methoxy-1,3,4,4a,5,10b-hexahydro-2H-[1]-benzopyrano[3,4-c]pyrido-3-yl)ethyl]-6,7-dimethoxy-quinazoline-2,4(1H,3H)-dione hydrochloride]
- Ki [1, 4]: 0.102 nM
- Ki [2, 5]: 0.066 nM

Structure (SMILES): COc1ccc2c(n1)sc1c(=O)n(CCCCN3C[C@@H]4COc5cccc(OC)c5[C@@H]4C3)c(=O)[nH]c12 [Example 33, hydrochloride]
- Ki [1, 4]: 0.811 nM
- Ki [2, 5]: 0.082 nM
- In Vitro Characterization (pA2) Rat Vas ([3]; rat vas deferens, phenylephrine-induced contraction, Schild plot): 9.02
